Measured values taken from EP1306084A1, “Compositions for the control of parasitic infestations in fish” (Alpharma AS, priority 1998, dated 1999).

Assays:
sea lice [1] = experiment: Oral or bath treatment in freshwater before sea transfer, sea lice counts after natural infestation (Example 6); assay type: in vivo, Atlantic salmon (Salmo salar)
Protocol: (§1) The treatment dosage was 9 mg hexaflumuron per kg fish per day for 10 days. This is indicated by "Groups/Timepoints" in the figure; • Figure 2 relates to the trial in Example 2 that was carried out on Atlantic salmon (Salmo salar). […] The treatment dosage varied between 3 - 9 mg hexaflumuron and 9- 12 mg fluazuron per kg fish per day for 7 days. This is indicated by "Groups/Timepoints" in the diagram. […] The treated groups are compared to an untreated control group. The treatment dosage was 4 mg hexaflumuron per kg fish per day for 5 days. This is indicated by "Groups/Timepoints" in the figure. Cage 2 = controls, Cage 4-6 = treated groups, 16.6.97 = time point for sea transfer and 5.8.97= controls treated by bathing with deltamethrin; • Figure 4 relates to the trial described in Example 5, which was carried out on sea trout (Salmo trutta). […] The treated groups are compared with an untreated control group. The dosage for oral treatment was 4 mg hexaflumuron per kilo fish per day for 5 days, and 5 ppm hexaflumuron as a 30 minute bath treatment. This is indicated by "Groups/Timepoints" in the figure. Cage 1.4 = Controls, cage 1.3 = Oral treatment, cage 1.2 = Bath treatment. […] The treated groups are compared with an untreated control group, and one group that has been treated orally with teflubenzuron (10 mg/kg of teflubenzuron per kg fish per day for 7 days). The dosage for oral treatment was 5.6 mg hexaflumuron per kg fish per day for 7 days, and 5 ppm hexaflumuron as a 30 minute bath treatment. […] End of treatment: 22.10.97, Sea transfer: 23.10.97. T1 = 3 weeks post end of treatment, T2 = 5 weeks post end of treatment, T3 = 9 weeks post end of treatment, T4 = 12 weeks post end of treatment; • Figure 6 relates to the trial in Example 6 at time points 4-6, with the same trial parameters as for Figure 5. T5 = 15 weeks post end of treatment, T6 = 17 weeks post end of treatment. Cage 3 and 4 were treated by bath with deltamethrin after sea lice counting at T4 (12.01.98); • Figure 7 relates to the trial described in Example 7 where salmon were injected on 17.12.97 with two formulations (groups L and R, respectively) of hexaflumuron and a vaccine formulation without hexaflumuron (control). […] The vaccinated fish was transferred to sea water on 09.01.98; • Figure 8 summarises the trial of Example 8 where salmon smolts were injected with 9 different active substances on 08.07.98. Only results for Moxidectin (Mox.), Lufenuron (Luf.) and hexaflumuron in Apoject 1-Fural (Hex.Apo) and in animal oil (Hex.oil) are shown, and • Figure 9 summarises the trial described in Example 10 where salmon were injected on 03.12.97 with 3 different formulations of hexaflumuron (Hexa 1, Hexa 2 and Hexa 3). The fish were transferred to sea water at T0.
About 400 Atlantic salmon (Salmo salar) of an average weight of 80 grams were divided into four groups of 100 fish in each. One group was given an oral treatment of 5.6 mg hexaflumuron per kg fish each day for 7 days before sea transfer. Group two was given a bath treatment with a dosage of 5 ppm (mg/l) hexaflumuron for 30 minutes with a formulation containing 10% hexaflumuron. Group three was given oral treatment with a daily dosage of 10 mg teflubenzuron per kg fish for 7 days, while the last group remained untreated. […] Every third week, lice from 10 fish in each cage were counted to assess if there was a difference in the number of lice between the cages. […]

sea lice [2] = experiment: Injection of 9 active substances, protective effect against sea lice (Example 8); assay type: in vivo, salmon smolt
Protocol: as §1
In this trial 9 different active substances were tested for protective effect against sea lice. 1,200 salmon smolt were, prior the start of the trial, vaccinated with a commercial vaccine, ALPHA JECT 5100.
One week after sea water transfer the salmon was divided into 12 groups and injected with different formulations of the 9 different active substances. In parallel with the 12 groups, a 13th group comprising 50 fish of the same origin and size was injected with a saline (PBS) solution without active substance. This group served as negative control/reference group in respect of sea lice infestations. The groups were marked by fin cutting and distributed randomly into 3 cages.
The active substances that were used as injection were hexaflumuron, buprofezin, diflubenzuron, fluazuron, lufenuron, ivermectin, doramectin, moxidectin and milbemycin oxime, respectively. All the fish were injected with 0.2 ml of the various injection formulations. Hexaflumuron, buprofezin, fluazuron, lufenuron and diflubenzuron were administered at a dosage of about 50 mg/kg whereas ivermectin, doramectin and moxidectin were administered at a dosage of 0.2 mg/kg (recommended dosage for mammals). […]

sea lice [3] = experiment: Oral treatment (coated feed / Akvaletter) of naturally sea lice infected salmon in minicages (Example 2); assay type: in vivo, Atlantic salmon (Salmo salar); conditions: fluazuron groups, 9.0-12.0 mg per day, 7 days
Protocol: as §1, with “T0. […]” for “T0.”

sea lice [4] = experiment: Oral or bath treatment in freshwater before sea transfer, sea lice counts after natural infection (Example 5); assay type: in vivo, sea trout (Salmo trutta); conditions: bath treatment 2, 5 and 8 weeks after sea transfer
Protocol: (§2) The treatment dosage was 9 mg hexaflumuron per kg fish per day for 10 days. This is indicated by "Groups/Timepoints" in the figure; • Figure 2 relates to the trial in Example 2 that was carried out on Atlantic salmon (Salmo salar). […] The treatment dosage varied between 3 - 9 mg hexaflumuron and 9- 12 mg fluazuron per kg fish per day for 7 days. This is indicated by "Groups/Timepoints" in the diagram. […] The treated groups are compared to an untreated control group. The treatment dosage was 4 mg hexaflumuron per kg fish per day for 5 days. This is indicated by "Groups/Timepoints" in the figure. Cage 2 = controls, Cage 4-6 = treated groups, 16.6.97 = time point for sea transfer and 5.8.97= controls treated by bathing with deltamethrin; • Figure 4 relates to the trial described in Example 5, which was carried out on sea trout (Salmo trutta). […] The treated groups are compared with an untreated control group. The dosage for oral treatment was 4 mg hexaflumuron per kilo fish per day for 5 days, and 5 ppm hexaflumuron as a 30 minute bath treatment. This is indicated by "Groups/Timepoints" in the figure. Cage 1.4 = Controls, cage 1.3 = Oral treatment, cage 1.2 = Bath treatment. […] The treated groups are compared with an untreated control group, and one group that has been treated orally with teflubenzuron (10 mg/kg of teflubenzuron per kg fish per day for 7 days). The dosage for oral treatment was 5.6 mg hexaflumuron per kg fish per day for 7 days, and 5 ppm hexaflumuron as a 30 minute bath treatment. […] End of treatment: 22.10.97, Sea transfer: 23.10.97. T1 = 3 weeks post end of treatment, T2 = 5 weeks post end of treatment, T3 = 9 weeks post end of treatment, T4 = 12 weeks post end of treatment; • Figure 6 relates to the trial in Example 6 at time points 4-6, with the same trial parameters as for Figure 5. […]
About 300 sea trout (Salmo trutta) of an average weight of 160 grams were divided into three groups of 100 fish each. […] Lice from 6-10 fish from each cage were counted every third week to assess whether there was any difference in the number of lice between the cages. […]

sea lice [5] = experiment: Oral treatment in freshwater before sea transfer, sea lice counts after natural infection (Example 4); assay type: in vivo, salmon (Salmo salar); conditions: bath treatment, 7 weeks into the trial
Protocol: as §2, with “23.10.97.” for “23.10.97. T1 = 3 weeks post end of treatment, T2 = 5 weeks post end of treatment, T3 = 9 weeks post end of treatment, T4 = 12 weeks post end of treatment; • Figure 6 relates to the trial in Example 6 at time points 4-6, with the same trial parameters as for Figure 5.”
About 2,500 salmon (Salmo salar) of average weight 42 grams were treated orally with a daily dosage of 4 mg hexaflumuron per kilo fish for 5 days. […] The number of lice on 10 fish from each cage were counted every third week to check if there was any difference in the number of lice in the cages. […]

In the case of `O=C(NC(=O)c1c(F)cccc1F)Nc1cc(Cl)c(F)c(Cl)c1F` [teflubenzuron], the “number of lice compared with untreated control group” value (sea lice [1]; oral 10 mg teflubenzuron per kg fish daily for 7 days, at each assessment) is reported as “same number of lice as the untreated control group” and the “protection against new establishments by sea lice” value (sea lice [1]; summary statement referring to Example 6) is reported as “do not protect”.
In the case of `O=C(NC(=O)c1c(F)cccc1F)Nc1cc(Cl)c(OC(F)(F)C(F)C(F)(F)F)cc1Cl` (centres unmarked) [lufenuron, reference compound], the “protection against sea lice” value (sea lice [2]; T2, 40 days after injection, hexaflumuron, lufenuron about 50 mg/kg, moxidectin 0.2 mg/kg) is reported as “showed protection”, the lice on average (sea lice [2]; T3, 70 days after injection, formulated in Apoject 1-Fural, about 50 mg/kg, control group 5.6) is reported as 0.6 and the “good protection against lice until T5, time after injection” value (sea lice [2]; lufenuron in Apoject 1-Fural, about 50 mg/kg) is reported as 128 days. For the same compound, the protection following injection (sea lice [2]; other active substances, summary of trial) was “good protection for an extended period of time”.
In the case of `O=C(NC(=O)c1c(F)cccc1F)Nc1ccc(Cl)c(Oc2ncc(C(F)(F)F)cc2Cl)c1` [fluazuron, reference compound], the “reduction as compared to the control group” value (sea lice [3]) is reported as 25%.
With `O=C(NC(=O)c1c(F)cccc1F)Nc1ccc(Cl)cc1` [diflubenzuron, reference compound] the “protection against new establishments by sea lice” value (sea lice [2]; summary statement referring to Example 8) was “do not protect”.
For `CC1(C)[C@H](C(=O)O[C@H](C#N)c2cccc(Oc3ccccc3)c2)[C@@H]1C=C(Br)Br` [deltamethrin, reference compound], the “bath treatment of control fish, number of lice” value (sea lice [4]) was “successful”, the “bath treatment of control and teflubenzuron groups, number of lice” value (sea lice [1]; bath treatment after T4) was “successful” and the “bath treatment of control fish to reduce the number of pre-adult lice” value (sea lice [5]) was “successful”.
